The target in this test is T1, mineralocorticoid receptor (MR) (Homo sapiens, UniProt P08235).
T1 construct: expressed in transfected cells; host or cells: Huh7 (human liver cells)
T1 sequence (P08235 726-964 limits assumed): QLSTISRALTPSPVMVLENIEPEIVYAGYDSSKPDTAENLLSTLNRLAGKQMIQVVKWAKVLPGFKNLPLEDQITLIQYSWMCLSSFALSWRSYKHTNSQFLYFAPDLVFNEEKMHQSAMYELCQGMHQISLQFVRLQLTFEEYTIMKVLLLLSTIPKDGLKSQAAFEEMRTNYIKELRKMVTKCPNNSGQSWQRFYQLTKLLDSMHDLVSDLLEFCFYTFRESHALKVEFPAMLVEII
The test is described as follows: Cell-based Gal4 response element-controlled luciferase reporter assay (MR antagonism). As to conditions: Huh7 human liver cells transfected with Gal4 DBD-MR LBD fusion and luciferase reporter; block of agonist-induced activation; overnight incubation. The gist of the method:
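Transiently transfected Huh7 cells were treated with agonist at 70-80% of full activation plus compounds for 18-20 h in medium with charcoal/dextran-stripped serum. Luciferase read-out was normalized to β-galactosidase (ONPG, OD420); IC50 came from curve fitting.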
(In general: In a reporter assay the amount or activity of a reporter protein is the signal.)

Each structure is given as a SMILES string. Counter-ions that a name gives are not always drawn.

One may read the IC50 as the midpoint of a concentration-inhibition curve. For the compound `N#Cc1ccc(N2N=C3c4ccc(C(=O)O)cc4CCC3C2C2CCNCC2)cc1Cl` (racemic) [Example 38, 2-(3-chloro-4-cyanophenyl)-3-(piperidin-4-yl)-3,3a,4,5-tetrahydro-2H-benzo[g]indazole-7-carboxylic acid trifluoroacetate], the concentration for half-maximal inhibition (IC50) is above 1000 nM. With `N#Cc1ccc(N2N=C3c4ccc(C(=O)O)cc4OC[C@H]3[C@H]2c2ccc(F)cc2)cc1Cl` [Example 57, (3S,3aS)-2-(3-chloro-4-cyanophenyl)-3-(4-fluorophenyl)-2,3,3a,4-tetrahydrochromeno[4,3-c]pyrazole-7-carboxylic acid], the IC50 came to 3510 nM. As for `N#Cc1ccc(N2N=C3c4ccc(C(=O)O)cc4OC[C@@H]3[C@@H]2c2ccc(F)cc2)cc1Cl` [Example 56, (3R,3aR)-2-(3-chloro-4-cyanophenyl)-3-(4-fluorophenyl)-2,3,3a,4-tetrahydrochromeno[4,3-c]pyrazole-7-carboxylic acid], the figure is 302 nM; as for `CS(=O)(=O)CCNC(=O)c1ccc2c(c1)CCC1C2=NN(c2ccc(C#N)c(Cl)c2)C1c1ccc(F)cc1` (racemic) [Example 96, 2-(3-chloro-4-cyanophenyl)-3-(4-fluorophenyl)-N-(2-(methylsulfonyl)ethyl)-3,3a,4,5-tetrahydro-2H-benzo[g]indazole-7-carboxamide], 12 nM; as for `N#Cc1ccc(N2N=C3c4ccc(C(=O)O)cc4CCC3C2c2ccc(F)cc2)cc1Cl` (racemic) [Example 2, 2-(3-chloro-4-cyanophenyl)-3-(4-fluorophenyl)-3,3a,4,5-tetrahydro-2H-benzo[g]indazole-7-carboxylic acid], 223 nM.

As for `COc1cc(N2N=C3c4ccc(C(=O)O)cc4CCC3C2C2CCCC2)ccc1C#N` (racemic) [Example 25, 2-(4-cyano-3-methoxyphenyl)-3-cyclopentyl-3,3a,4,5-tetrahydro-2H-benzo[g]indazole-7-carboxylic acid], the IC50 amounted to 7 nM.

For the compound `C[S+]([O-])CCNC(=O)c1ccc2c(c1)CC[C@@H]1C2=NN(c2ccc(C#N)c(Cl)c2)[C@H]1c1ccc(F)cc1` (mixture of isomers) [Example 98, (±)-(3RS,3aSR)-2-(3-chloro-4-cyanophenyl)-3-(4-fluorophenyl)-N-(2-(methylsulfinyl)ethyl)-3,3a,4,5-tetrahydro-2H-benzo[g]indazole-7-carboxamide], the half-inhibitory concentration (IC50) was determined as 13 nM. For the compound `Cc1cc(N2N=C3c4ccc(O)cc4CCC3C2c2ccc(F)cc2)ccc1C#N` (stereo not drawn) [Example 80], the half-inhibitory concentration (IC50) is 49 nM. As for `C[S+]([O-])CCNC(=O)c1ccc2c(c1)CC[C@H]1C2=NN(c2ccc(C#N)c(Cl)c2)[C@H]1C1CCOCC1` (mixture of isomers) [Example 99], the figure is 14 nM. With `N#Cc1ccc(N2N=C3c4ccc(OS(=O)(=O)C(F)(F)F)cc4OCC3C2c2ccc(F)cc2)cc1Cl` (racemic) [Example 92, 2-(3-chloro-4-cyanophenyl)-3-(4-fluorophenyl)-2,3,3a,4-tetrahydrochromeno[4,3-c]pyrazol-7-yl trifluoromethanesulfonate] the figure was above 1000 nM; with `Cc1cc(N2N=C3c4ccc(C(=O)O)cc4CCC3C2C2=CCCC2)ccc1C#N` (racemic) [Example 51, 2-(4-cyano-3-methylphenyl)-3-cyclopentenyl-3,3a,4,5-tetrahydro-2H-benzo[g]indazole-7-carboxylic acid], 7 nM.

On to `N#Cc1ccc(N2N=C3c4ccc(C(=O)NCC(=O)NCC(=O)O)cc4CC[C@H]3[C@@H]2c2ccc(F)cc2)cc1Cl` (racemic) [Example 108, (±)-2-(2-((3RS,3aSR)-2-(3-chloro-4-cyanophenyl)-3-(4-fluorophenyl)-3,3a,4,5-tetrahydro-2H-benzo[g]indazole-7-carboxamido)acetamido)acetic acid], for which the IC50 was above 1000 nM.
